According to PMC5059921, “Chalepin: isolated from Ruta angustifolia L. Pers induces mitochondrial mediated apoptosis in lung carcinoma cells” (BMC Complementary and Alternative Medicine, 2016):
Read-outs that look alike come from different tables or passages of the source.

Key:
washed rabbit platelets = test system: washed rabbit platelets; design: method as in earlier work; key to effect on platelet aggregation (class symbol): A: P latelet aggregation was promoted; details: cited from earlier work; for % inhibition of platelet aggregation, inducer AA: AA 100 /c109/c77; for % inhibition of platelet aggregation, inducer PAF: PAF 2ng/mL; for % inhibition of platelet aggregation, inducer Col: collagen 10 /c109g/mL; for % inhibition of platelet aggregation, inducer Thr: thrombin 0.1 U/mL; for antiplatelet aggregation activity (in words): at 100 /c109g/mL
Hepa: Human hepatoma = test system: Hepa: Human hepatoma; design: method as in earlier work; details: cited from earlier work
[1] = test system: MRC5 (human normal lung fibroblasts); assay: SRB in vitro cytotoxicity screening (toxicity to normal cells); type: cell-based; details: isolated compounds; for IC50: 72 h, read-out: IC50 in μg/ml (μM) (MRC5) 72 h (converted)
Description: (§1) The human cell lines A549 (lung cancer) and Ca Ski (cervical cancer) were cultured as monolayer in RPMI 1640 growth media whereas HCT-116 (colon cancer) and MRC5 (human normal lung fibroblasts) was cultured in McCoy’s 5A and EMEM medium, respectively. All cells were purchased from the […] (ATCC, USA). All the media were supplemented with 10 % v/v foetal bovine serum (FBS), 100 μg/mL penicillin/streptomycin, and 50 μg/mL amphotericin B. The cells were cultured in a 5 % CO2 incubator at 37 °C.
(§2) The monolayer cell culture was detached using accutase and the cell count was adjusted to 2.5 x10^5 -3.0 x10^5 cells/mL using medium containing feotal bovine serum. The cells were then plated into 96 wells with a cell density of 5000-7000 cells/well and then incubated for 24 h to allow adherence of cells to the base of well of the plates. The media was then removed and 200 μl of fresh media containing different concentration of various extracts or isolated compounds were added. Cisplatin was used as the positive control. The plates were incubated for 24, 48 and 72 h at 37 °C and 5 % CO2. The cytotoxicity of the extracts and isolated compounds were screened using the […] (SRB) assay. This assay was first described by Houghton in 2007 [8]. The incubation was halted by gentle addition of 50 μl ice cold 4 % trichloroacetic acid (TCA) to each well and the plates were incubated at 4 °C for 1 h. Then, the supernatant was discarded and the plates were washed with distilled water for 5 times and then air dried. SRB dye, 50 μl, (0.4 % w/v) was added into each well and the treated cells and control were incubated at room temperature for 30 min. The unbound dye was removed by rapid washing four times with 1 % acetic acid. The plates were then air dried and 100 μl of tris base (10 mM unbuffered, pH 10.5) was added and the plates were shaken at 500 rpm for 5 min to solublize the bound SRB stain. The plates were then read with an ELISA reader (Synergy H1 Hybrid) at an absorbance of 492 nm.

A549 cell line = assay: SRB in vitro cytotoxicity screening; type: cell-based, human; details: isolated compounds
Description: as §1, §2

[2] = test system: DLD (DLD-1): Human colon adenocarcinoma; design: method as in earlier work; details: cited from earlier work
[3] = test system: Hela: Human cervix epithelioid carcinoma; design: method as in earlier work; details: cited from earlier work
[4] = Homo sapiens, MRC5, value in brackets
[5] = Homo sapiens, A549, 48 h, value in brackets, read-out: IC50 in μg/ml (μM) (A549) 48 h (converted)
[6] = Homo sapiens, A549, 48 h, read-out: IC50 in μg/ml (μM) (A549) 48 h (converted)
[7] = Homo sapiens, A549, 72 h, value in brackets, read-out: IC50 in μg/ml (μM) (A549) 72 h (converted)
[8] = Homo sapiens, A549, 72 h, read-out: IC50 in μg/ml (μM) (A549) 72 h (converted)

| Compound | antiplatelet aggregation activity (in words) (washed rabbit platelets) | ED50 Hepa (Hepa: Human hepatoma) | IC50 [1, 4] [µM] | IC50 ([1]; Homo sapiens, MRC5) [µg/mL] | IC50 (A549 cell line; [5]) [µM] | IC50 (A549 cell line; [6]) [µg/mL] | IC50 (A549 cell line; [7]) [µM] | IC50 (A549 cell line; [8]) [µg/mL] | ED50 DLD [2] | also measured |
| --- | --- | --- | --- | --- | --- | --- | --- | --- | --- | --- |
| 1-hydroxy-N-methylacridone [Compound 1] | no obvious activity | - (“-“: ED50 /c6220 /c109g/mL) | – | – | – | – | – | – | – | % inhibition of platelet aggregation, inducer AA (washed rabbit platelets; Conc. 20 /c109g/mL): 17.8%; % inhibition of platelet aggregation, inducer PAF (washed rabbit platelets; Conc. 20 /c109g/mL): 3.4%; % inhibition of platelet aggregation, inducer Col (washed rabbit platelets; Conc. 20 /c109g/mL): 3.7%; % inhibition of platelet aggregation, inducer Thr (washed rabbit platelets; Conc. 20 /c109g/mL): 4.3%; effect on platelet aggregation (class symbol) (washed rabbit platelets; Conc. 50 /c109g/mL, inducer column cannot be told): A |
| COc1c2ccoc2cc2oc(=O)ccc12 [Bergapten, bergapten] | – | – | > 463 | > 100 | > 463 | > 100 | 202 | 43.5 ± 1.81 | – | – |
| N.N.[Cl][Pt][Cl] [Cisplatin, reference compound] | – | – | – | – | – | – | – | – | – | IC50 in μg/ml (μM) (MRC5) 72 h [1]: > 100 µg/mL; IC50 ([1]; value in brackets): > 333 µM; IC50 in μg/ml (μM) (A549) 72 h (A549 cell line; 72 h): 24.5 ± 1.8 µg/mL; IC50 (A549 cell line; 72 h, value in brackets, read-out: IC50 in μg/ml (μM) (A549) 72 h (converted)): 81.7 µM |
| COc1cc2c(c(O)c1OC)c(=O)c1ccccc1n2C [Compound 2, arborinine] | no obvious activity | - (“-“: ED50 /c6220 /c109g/mL) | – | – | – | – | – | – | - (“-“: ED50 /c6220 /c109g/mL) | % inhibition of platelet aggregation, inducer AA (washed rabbit platelets; Conc. 50 /c109g/mL): 51.6%; % inhibition of platelet aggregation, inducer PAF (washed rabbit platelets; Conc. 50 /c109g/mL): 4.8%; % inhibition of platelet aggregation, inducer Col (washed rabbit platelets; Conc. 50 /c109g/mL): 39.1%; % inhibition of platelet aggregation, inducer Thr (washed rabbit platelets; Conc. 50 /c109g/mL): 1.1% |
| COc1cc2nc3occc3c(OC)c2cc1OC [Compound 6, kokusaginine] | no obvious activity | - (“-“: ED50 /c6220 /c109g/mL) | – | – | – | – | – | – | - (“-“: ED50 /c6220 /c109g/mL) | % inhibition of platelet aggregation, inducer AA (washed rabbit platelets; Conc. 100 /c109g/mL): 42.2%; % inhibition of platelet aggregation, inducer PAF (washed rabbit platelets; Conc. 100 /c109g/mL): 3.5%; % inhibition of platelet aggregation, inducer Col (washed rabbit platelets; Conc. 100 /c109g/mL): 53.1%; % inhibition of platelet aggregation, inducer Thr (washed rabbit platelets; Conc. 100 /c109g/mL): 0.9% |
| COc1c2ccoc2c(OC)c2oc(=O)ccc12 [Compound 11, isopimpinellin] | no obvious activity | – | – | – | – | – | – | – | – | % inhibition of platelet aggregation, inducer AA (washed rabbit platelets; Conc. 100 /c109g/mL): 30.4%; % inhibition of platelet aggregation, inducer PAF (washed rabbit platelets; Conc. 100 /c109g/mL): 4.5%; % inhibition of platelet aggregation, inducer Col (washed rabbit platelets; Conc. 100 /c109g/mL): 8.0%; % inhibition of platelet aggregation, inducer Thr (washed rabbit platelets; Conc. 100 /c109g/mL): 3.9% |
| C=CC(C)(C)c1cc2cc3c(cc2oc1=O)OC(C(C)(C)OC(C)=O)C3 (centres unmarked) [Compound 14, rutamarin] | no obvious activity | - (“-“: ED50 /c6220 /c109g/mL) | – | – | – | – | – | – | – | % inhibition of platelet aggregation, inducer AA (washed rabbit platelets; Conc. 50 /c109g/mL): 7.6%; % inhibition of platelet aggregation, inducer PAF (washed rabbit platelets; Conc. 50 /c109g/mL): 4.5%; % inhibition of platelet aggregation, inducer Col (washed rabbit platelets; Conc. 50 /c109g/mL): 10.5%; % inhibition of platelet aggregation, inducer Thr (washed rabbit platelets; Conc. 50 /c109g/mL): 3.0% |
| COc1cc2ccc(=O)oc2cc1O [Compound 15, scopoletin] | no obvious activity | - (“-“: ED50 /c6220 /c109g/mL) | – | – | – | – | – | – | - (“-“: ED50 /c6220 /c109g/mL) | ED50 Hela [3]: - (“-“: ED50 /c6220 /c109g/mL); % inhibition of platelet aggregation, inducer AA (washed rabbit platelets; Conc. 100 /c109g/mL): 14.7%; % inhibition of platelet aggregation, inducer PAF (washed rabbit platelets; Conc. 100 /c109g/mL): 1.6%; % inhibition of platelet aggregation, inducer Col (washed rabbit platelets; Conc. 100 /c109g/mL): 3.4%; % inhibition of platelet aggregation, inducer Thr (washed rabbit platelets; Conc. 100 /c109g/mL): 1.5% |
| Cn1c(-c2ccc3c(c2)OCO3)cc(=O)c2ccccc21 [Compound 17, graveoline] | no obvious activity | - (“-“: ED50 /c6220 /c109g/mL) | – | – | – | – | – | – | - (“-“: ED50 /c6220 /c109g/mL) | % inhibition of platelet aggregation, inducer AA (washed rabbit platelets; Conc. 50 /c109g/mL): 9.5%; % inhibition of platelet aggregation, inducer PAF (washed rabbit platelets; Conc. 50 /c109g/mL): 6.2%; % inhibition of platelet aggregation, inducer Col (washed rabbit platelets; Conc. 50 /c109g/mL): 5.2%; % inhibition of platelet aggregation, inducer Thr (washed rabbit platelets; Conc. 50 /c109g/mL): 1.1% |
| Cn1c(-c2ccc3c(c2)OCO3)cc(=O)c2ccccc21 [Graveoline, graveoline] | – | – | 250 | 69.7 ± 2.5 | 274 | 76.3 ± 2.08 | 160 | 44.6 ± 0.47 | – | – |
| COc1cc2nc3occc3c(OC)c2cc1OC [Kokusaginine, kokusaginine] | – | – | 289 | 74.8 ± 0.82 | – | – | – | – | – | IC50 (A549 cell line; Homo sapiens, A549, 48 h, 48 h, value in brackets, read-out: IC50 in μg/ml (μM) (A549) 48 h (converted)): 338 µM; IC50 (A549 cell line; Homo sapiens, A549, 48 h, 48 h, read-out: IC50 in μg/ml (μM) (A549) 48 h (converted)): 87.4 ± 7.08 µg/mL; IC50 (A549 cell line; Homo sapiens, A549, 72 h, 72 h, value in brackets, read-out: IC50 in μg/ml (μM) (A549) 72 h (converted)): > 386 µM; IC50 (A549 cell line; Homo sapiens, A549, 72 h, 72 h, read-out: IC50 in μg/ml (μM) (A549) 72 h (converted)): > 100 µg/mL |
| CC(=O)CCCCc1ccc2c(c1)OCO2 [Moskachan B, moskachan B] | – | – | > 454 | > 100 | > 454 | > 100 | > 454 | > 100 | – | – |
| CC(=O)CCCCCCc1ccc2c(c1)OCO2 [Moskachan D, moskachan D] | – | – | 366 | 90.8 ± 0.8 | 312 | 77.5 ± 3 | 74.6 | 18.5 ± 0.65 | – | – |
| C=CC(=C)CCCC(C)CCCC(C)CCCC(C)C (centres unmarked) [Neophytadiene, neophytadiene] | – | – | 278 | 77.4 ± 0.98 | 249 | 69.2 ± 1.06 | 245 | 68 ± 2.43 | – | – |
| bergapten [Compound 9] | no obvious activity | - (“-“: ED50 /c6220 /c109g/mL) | – | – | – | – | – | – | - (“-“: ED50 /c6220 /c109g/mL) | ED50 Hela [3]: - (“-“: ED50 /c6220 /c109g/mL); % inhibition of platelet aggregation, inducer AA (washed rabbit platelets; Conc. 50 /c109g/mL): 63.5%; % inhibition of platelet aggregation, inducer PAF (washed rabbit platelets; Conc. 50 /c109g/mL): 4.5%; % inhibition of platelet aggregation, inducer Col (washed rabbit platelets; Conc. 50 /c109g/mL): 59.0%; % inhibition of platelet aggregation, inducer Thr (washed rabbit platelets; Conc. 50 /c109g/mL): 7.5% |
